From patent publication US10548861B2 (Academia Sinica, priority 2015, dated 2020)
Like-named read-outs stand apart in the source and are kept apart here.

Key:
[1] = system: MA-10-W51 CB MLL-AF9 + Flt3ITD; assay: Cytotoxicity: AML HSC-derived; type: cell-based, human; details: growth factor dependent MA-10-W51, FIG. 9
From the text: • a) Growth factor-dependent & cell density growth dependent cell lines. Human cord blood CD34+ cells transduced with MLL-AF9 gene: MA-10, MA-18. Human bone marrow CD34+ cells transduced with MLL-AF9 gene: MA-23. Human cord blood CD34+ cells transduced with MLL-AF9 and N-ras genes: MA-9.3, MA-9.6. • b) Growth factor independent leukemic cell lines. Human MA-10 cells transduced with Flt3 ITD (W51) were adapted to in vitro proliferation without growth factors (Moore Laboratory).

[2] = system: primary AML (AML-2) vs normal human tissues; type: cell-based
[3] = system: MV4;11 AML cell line vs normal human tissues; type: cell-based
[4] = system: primary B-ALL vs normal human tissues; type: cell-based
[5] = system: H526 variant SCLC cell line vs normal human tissues; type: cell-based
[6] = system: normal human, murine or primate cell and tissue types; assay: MTT / alamar blue cytotoxicity on panel of normal tissues; type: cell-based; details: read-out: IC50 range
H417 = assay: 72 hr cytotoxicity: SCLC variant; type: cell-based; details: Homo sapiens, NCI-H417
BCI-NSI hTERT = assay: 72 hr cytotoxicity: Bronchial epithelium; type: cell-based; details: Homo sapiens
H60 = assay: 72 hr cytotoxicity: SCLC classic; type: cell-based; details: Homo sapiens
H841 = assay: 72 hr cytotoxicity: SCLC variant; type: cell-based; details: Homo sapiens, NCI-H841
H719 = assay: 72 hr cytotoxicity: SCLC classic; type: cell-based; details: Homo sapiens
H562 = assay: 72 hr cytotoxicity: SCLC classic; type: cell-based; details: Homo sapiens
H69 = assay: 72 hr cytotoxicity: SCLC classic; type: cell-based; details: Homo sapiens, NCI-H69
H146 = assay: 72 hr cytotoxicity: SCLC classic; type: cell-based; details: Homo sapiens, NCI-H146
[7] = system: normal cord blood CD34+ cells; assay: Cytotoxicity on normal cord blood CD34+ cells; type: cell-based; details: Homo sapiens
H209 = assay: 72 hr cytotoxicity: SCLC classic; type: cell-based; details: Homo sapiens, NCI-H209
H524 = assay: 72 hr cytotoxicity: SCLC variant; type: cell-based; details: Homo sapiens, NCI-H524
H82 = assay: 72 hr cytotoxicity: SCLC variant; type: cell-based; details: Homo sapiens, NCI-H82
H889 = assay: 72 hr cytotoxicity: SCLC classic; type: cell-based; details: Homo sapiens, NCI-H889
H678 = assay: 72 hr cytotoxicity: SCLC classic; type: cell-based; details: Homo sapiens
BMMSC = assay: 72 hr cytotoxicity: BM Mesenchyme; type: cell-based; details: Homo sapiens
H187 = assay: 72 hr cytotoxicity: SCLC classic; type: cell-based; details: Homo sapiens, NCI-H187
H526 = assay: 72 hr cytotoxicity: SCLC variant; type: cell-based; details: Homo sapiens, NCI-H526
FTE-hTERT = assay: 72 hr cytotoxicity: Fallopian epithelium; type: cell-based; details: Homo sapiens
H249 = assay: 72 hr cytotoxicity: SCLC classic; type: cell-based; details: Homo sapiens
REC-1 = assay: Cytotoxicity: Mantle Cell Lymphoma; details: Homo sapiens, Rec1
HBL2 = assay: Cytotoxicity: Mantle Cell Lymphoma; details: Homo sapiens, HBL2
H128 = assay: 72 hr cytotoxicity: SCLC classic; type: cell-based; details: Homo sapiens, NCI-H128; read-out: IC50
H211 = assay: 72 hr cytotoxicity: SCLC variant; type: cell-based; details: Homo sapiens, NCI-H211; read-out: IC50

CCc1c(CO)c(CO)c2n1Cc1c(c3ccccc3n1C)C2 [BO-1978]
cytotoxicity (in words) [1]: highly cytotoxic, with BO-1978 more so than BO-1055

N.N.[Cl][Pt][Cl] [Cisplatin]
Therapeutic window ([2]; Bci- (NSI) relative to AML-2): 0.50
Therapeutic window ([2]; CD34+ relative to AML-2): 0.10
Therapeutic window ([2]; FTEC relative to AML-2): 1.67
Therapeutic window ([2]; HUVEC relative to AML-2): 0.83
Therapeutic window ([2]; huMSC relative to AML-2): 0.33
Therapeutic window ([3]; CD34+ relative to MV4;11): 0.75
Therapeutic window ([3]; HUVEC relative to MV4;11): 6.25
Therapeutic window ([3]; NSI (Bci-NSI) relative to MV4;11): 3.75
Therapeutic window ([3]; huMSC relative to MV4;11): 2.50
Therapeutic window ([4]; Bci- (NSI) relative to B-ALL): 0.50
Therapeutic window ([4]; CD34+ relative to B-ALL): 0.10
Therapeutic window ([4]; FTEC relative to B-ALL): 20.00
Therapeutic window ([4]; HUVEC relative to B-ALL): 0.83
Therapeutic window ([4]; huMSC relative to B-ALL): 0.33
therapeutic window (TW) ([5]; Bci- (NSI), normalized to 1.00 for H526): 83.33
therapeutic window (TW) ([5]; CD34+, normalized to 1.00 for H526): 33.33
therapeutic window (TW) ([5]; FTEC, normalized to 1.00 for H526): 1041.7
therapeutic window (TW) ([5]; H526 (reference)): 1.00
therapeutic window (TW) ([5]; HUVEC, normalized to 1.00 for H526): 58.33
therapeutic window (TW) ([5]; huMSC, normalized to 1.00 for H526): 75.00
IC50 [6]: 3600 to 4100 nM

COc1cc([C@@H]2c3cc4c(cc3[C@@H](O[C@@H]3O[C@@H]5CO[C@@H](C)O[C@H]5[C@H](O)[C@H]3O)[C@H]3COC(=O)[C@H]23)OCO4)cc(OC)c1O [Etoposide]
IC50 (H417): 3700 nM
IC50 (BCI-NSI hTERT; 72 h): 500 nM
IC50 (H60): ≥ 20000 nM
IC50 (H841): 600 nM
IC50 (H719): ≥ 10000 nM
IC50 (H562): 5500 nM
IC50 (H69): 400 nM
IC50 (H146): 2900 nM
IC50 ([7]; 72 h): 90 nM
IC50 (H209): 500 nM
IC50 (H524): 1400 nM
IC50 (H82): 9700 nM
IC50 (H889): 1400 nM
IC50 (H678): 310 nM
IC50 (BMMSC; 72 h): 70200 nM
IC50 (H187): 600 nM
IC50 (H526): 800 nM
IC50 (FTE-hTERT; 72 h): 200000 nM
IC50 (H249): 4100 nM

CC(=O)O[C@H]1C(=O)[C@@]2(C)[C@H]([C@H](OC(=O)c3ccccc3)[C@]3(O)C[C@H](OC(=O)[C@H](O)[C@@H](NC(=O)c4ccccc4)c4ccccc4)C(C)=C1C3(C)C)[C@]1(OC(C)=O)CO[C@@H]1C[C@@H]2O [Paclitaxel]
IC50 (REC-1): 21 nM
IC50 (HBL2): 16 nM

Cc1[nH]c2ccccc2c1CCNCc1ccc(/C=C/C(=O)NO)cc1 [Panobinostat]
IC50 (REC-1): 60 nM
IC50 (HBL2): 13 nM

CC[C@]1(O)C[C@H]2CN(CCc3c([nH]c4ccccc34)[C@@](C(=O)OC)(c3cc4c(cc3OC)N(C=O)[C@H]3[C@@](O)(C(=O)OC)[C@H](OC(C)=O)[C@]5(CC)C=CCN6CC[C@]43[C@@H]65)C2)C1 [Vincristine]
IC50 (H417; read-out: IC50): 2 nM
IC50 (BCI-NSI hTERT; Bci-NSI hTERT immortalized lung bronchus epithelium, 72 hr, read-out: IC50): 200000 nM
IC50 (H60; H60, read-out: IC50): 2 nM
IC50 (H841; read-out: IC50): 2 nM
IC50 (H719; H719, read-out: IC50): 2 nM
IC50 (H128): 5 nM
IC50 (H562; H562, read-out: IC50): 1 nM
Therapeutic window [3]: 1.00
IC50 (H69; read-out: IC50): 3 nM
IC50 (H146; read-out: IC50): 2900 nM
IC50 ([7]; CD34 (cord blood hematopoietic progenitors), 72 hr, read-out: IC50): 2340 nM
IC50 (H211): 2 nM
IC50 (H209; read-out: IC50): 1 nM
IC50 (H524; read-out: IC50): 1 nM
IC50 (H82; read-out: IC50): 7 nM
IC50 (H889; read-out: IC50): 1 nM
IC50 (H678; H678, read-out: IC50): 2 nM
IC50 (BMMSC; HuMSC bone marrow mesenchymal stem cells, 72 hr, read-out: IC50): 6300 nM
IC50 (H187; read-out: IC50): 1 nM
IC50 (H526; read-out: IC50): 136 nM
IC50 (FTE-hTERT; FTEC Fallopian tube epithelium, 72 hr, read-out: IC50): 250000 nM
IC50 (H249; H249, read-out: IC50): 1 nM
